Experimental data as given in PMC12892976, “Alkylation-based optimization of antifungal FPPS inhibitors yields a potent, broad-spectrum lipophilic zoledronate derivative” (mBio, 2025).
In brackets after ≈: the same amount, converted by molar mass.

What was measured:
[1] = tested on: Cryptococcus gattii; assay: MIC broth microdilution (CLSI); assay type: cell-based; conditions: Cryptococcus gattii PNG27
Method: (§1) Antifungal susceptibility was determined by broth microdilution according to the CLSI guidelines described in M27-Ed4 ([16]).

[2] = tested on: Mucor circinelloides; assay: checkerboard drug interaction (FICI, MICc); assay type: cell-based;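 also: simplified diagonal checkerboard screen pairing antifungals with FPPS inhibitors, FICI calculated under the Loewe additivity model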
Method: (§2) Drug interactions between antifungals and FPPS inhibitors were investigated using a simplified checkerboard diagonal screening method ([45]). […] FICIs were determined according to the Loewe additivity model ([17]).

[3] = tested on: Rhizopus oryzae; assay: MIC broth microdilution (CLSI); assay type: cell-based; conditions: Rhizopus oryzae 04-14-364-1703
Method: as §1

[4] = tested on: Trichophyton tonsurans; assay: checkerboard drug interaction (FICI, MICc); assay type: cell-based;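 also: simplified diagonal checkerboard screen combining antifungals with FPPS inhibitors, with FICI calculated under the Loewe additivity model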
Method: as §2

[5] = tested on: Nannizzia nana; assay: checkerboard drug interaction (FICI, MICc); assay type: cell-based;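 also: simplified diagonal checkerboard screen pairing antifungals with FPPS inhibitors, FICI calculated under the Loewe additivity model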
Method: as §2

[6] = tested on: Aspergillus niger; assay: checkerboard drug interaction (FICI, MICc); assay type: cell-based;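 also: simplified diagonal checkerboard screen pairing antifungals with FPPS inhibitors, FICI calculated under the Loewe additivity model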
Method: as §2

[7] = tested on: Aspergillus parafelis; assay: MIC broth microdilution (CLSI); assay type: cell-based; conditions: Aspergillus parafelis DTO 341-F2
Method: as §1

[8] = tested on: Candida tropicalis; assay: MIC broth microdilution (CLSI); assay type: cell-based; conditions: Candida tropicalis M230640
Method: as §1

[9] = tested on: Aspergillus parafelis; assay: checkerboard drug interaction (FICI, MICc);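 also: simplified diagonal checkerboard screen pairing antifungals with FPPS inhibitors, FICI calculated under the Loewe additivity model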
Method: as §2

[10] = tested on: Fusarium solani; assay: checkerboard drug interaction (FICI, MICc); assay type: cell-based;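 also: simplified diagonal checkerboard screen pairing antifungals with FPPS inhibitors, FICI derived under the Loewe additivity model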
Method: as §2

[11] = tested on: Candida auris; assay: checkerboard drug interaction (FICI, MICc); assay type: cell-based;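 also: simplified diagonal checkerboard screen pairing antifungals with FPPS inhibitors, with FICI computed under the Loewe additivity model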
Method: as §2

[12] = tested on: Aspergillus udagawae; assay: MIC broth microdilution (CLSI); assay type: cell-based; conditions: Aspergillus udagawae 8G81
Method: as §1

[13] = tested on: Candida auris; assay: MIC broth microdilution (CLSI); assay type: cell-based; conditions: Candida auris CDC-0384
Method: as §1

[14] = tested on: Lomentospora prolificans; assay: MIC broth microdilution (CLSI); assay type: cell-based; conditions: Lomentospora prolificans 80-16-101-2445
Method: as §1

[15] = tested on: Nannizzia nana; assay: MIC broth microdilution (CLSI); assay type: cell-based; conditions: Nannizzia nana R-133
Method: as §1

[16] = tested on: Cryptococcus tetragattii; assay: checkerboard drug interaction (FICI, MICc); assay type: cell-based;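 also: simplified diagonal checkerboard screen pairing antifungals with FPPS inhibitors, with FICI calculated under the Loewe additivity model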
Method: as §2

[17] = tested on: Aspergillus lentulus; assay: checkerboard drug interaction (FICI, MICc); assay type: cell-based;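 also: simplified diagonal checkerboard screen pairing antifungals with FPPS inhibitors, with the interaction index calculated under the Loewe additivity model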
Method: as §2

[18] = tested on: Trichophyton interdigitale; assay: checkerboard drug interaction (FICI, MICc);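 also: simplified diagonal checkerboard screen pairing antifungals with FPPS inhibitors, FICI values calculated under the Loewe additivity model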
Method: as §2

[19] = tested on: Microsporum canis; assay: checkerboard drug interaction (FICI, MICc); assay type: cell-based
Method: as §2

[20] = tested on: Scedosporium apiospermum; assay: MIC broth microdilution (CLSI); assay type: cell-based; conditions: Scedosporium apiospermum 04-16-022-2268
Method: as §1

[21] = tested on: Epidermophyton floccosum; assay: checkerboard drug interaction (FICI, MICc)
Method: as §2

[22] = tested on: Trichophyton soudanense; assay: checkerboard drug interaction (FICI, MICc); assay type: cell-based;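 also: simplified diagonal checkerboard screen pairing antifungals with FPPS inhibitors, FICI computed under the Loewe additivity model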
Method: as §2

[23] = tested on: Candida parapsilosis; assay: checkerboard drug interaction (FICI, MICc); assay type: cell-based;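 also: simplified diagonal checkerboard screen pairing antifungals with FPPS inhibitors, with FICI computed under the Loewe additivity model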
Method: as §2

[24] = tested on: Aspergillus niger; assay: MIC broth microdilution (CLSI); assay type: cell-based; conditions: Aspergillus niger 111
Method: as §1

[25] = tested on: Scedosporium apiospermum; assay: checkerboard drug interaction (FICI, MICc); assay type: cell-based;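 also: simplified diagonal checkerboard screen of antifungal plus FPPS inhibitor pairs, with FICI computed under the Loewe additivity model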
Method: as §2

[26] = tested on: Fusarium oxysporum; assay: checkerboard drug interaction (FICI, MICc); assay type: cell-based
Method: as §2

[27] = tested on: Lomentospora prolificans; assay: checkerboard drug interaction (FICI, MICc)
Method: as §2

[28] = tested on: Aspergillus frankstonensis; assay: MIC broth microdilution (CLSI); assay type: cell-based; conditions: Aspergillus frankstonensis DTO 341-F3
Method: as §1

[29] = tested on: Mucor circinelloides; assay: MIC broth microdilution (CLSI); assay type: cell-based; conditions: Mucor circinelloides 80-14-240-5007
Method: as §1

[30] = tested on: Candida dubliniensis; assay: MIC broth microdilution (CLSI); assay type: cell-based; conditions: Candida dubliniensis M230642
Method: as §1

[31] = tested on: Aspergillus frankstonensis; assay: checkerboard drug interaction (FICI, MICc);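 also: simplified diagonal checkerboard screen pairing antifungals with FPPS inhibitors, FICI calculated using the Loewe additivity model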
Method: as §2

[32] = tested on: Cryptococcus gattii; assay: checkerboard drug interaction (FICI, MICc); assay type: cell-based;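 also: simplified diagonal checkerboard screen pairing antifungals with FPPS inhibitors, FICI computed under the Loewe additivity model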
Method: as §2

[33] = tested on: Nannizzia gypsea; assay: checkerboard drug interaction (FICI, MICc);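 also: simplified diagonal checkerboard screen pairing antifungals with FPPS inhibitors, FICI derived using the Loewe additivity model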
Method: as §2

[34] = tested on: Candida parapsilosis; assay: MIC broth microdilution (CLSI); assay type: cell-based; conditions: Candida parapsilosis ATCC 22018
Method: Antifungal susceptibility was determined by broth microdilution according to the CLSI guidelines described in M27-Ed4 ([16]). […] MFC was determined by back-plating drug-treated cultures from MIC broths onto SDA plates. The MFC was defined as the lowest concentration from which no colonies could be cultured.

SMILES: C[C@@H](c1ncncc1F)[C@](O)(Cn1cncn1)c1ccc(F)cc1F [VOR]
- MIC / MEC [1]: 0.06 µg/mL (≈ 0.172 µM)
- antifungal MICc ([2]; in combination with 10-ZOL): 4
- antifungal MICc ([2]; in combination with ZOL): 4
- MIC / MEC [3]: 16 µg/mL (≈ 45.8 µM)
- antifungal MICc ([4]; in combination with 10-ZOL): 0.063
- antifungal MICc ([4]; in combination with ZOL): 0.0625
- antifungal MICc ([5]; in combination with 10-ZOL): 0.0625
- antifungal MICc ([5]; in combination with ZOL): 0.0625
- antifungal MICc ([6]; in combination with 10-ZOL): 0.13
- antifungal MICc ([6]; in combination with ZOL): 1
- MIC / MEC [7]: 8 µg/mL (≈ 22.9 µM)
- MIC / MEC [8]: 0.13 µg/mL (≈ 0.372 µM)
- antifungal MICc ([9]; in combination with 10-ZOL): 2
- antifungal MICc ([9]; in combination with ZOL): 2
- antifungal MICc ([10]; in combination with 10-ZOL): 0.5
- antifungal MICc ([10]; in combination with ZOL): 1
- antifungal MICc ([11]; in combination with 10-ZOL): 0.25
- antifungal MICc ([11]; in combination with ZOL): 1
- MIC / MEC [12]: 1 µg/mL (≈ 2.86 µM)
- MIC / MEC [13]: 2 µg/mL (≈ 5.73 µM)
- MIC / MEC [14]: 16 µg/mL (≈ 45.8 µM)
- MIC / MEC [15]: 0.06 µg/mL (≈ 0.172 µM)
- antifungal MICc ([16]; in combination with 10-ZOL): 0.063
- antifungal MICc ([16]; in combination with ZOL): 0.125
- antifungal MICc ([17]; in combination with 10-ZOL): 0.5
- antifungal MICc ([17]; in combination with ZOL): 0.5
- antifungal MICc ([18]; in combination with 10-ZOL): 0.063
- antifungal MICc ([18]; in combination with ZOL): 0.0625
- antifungal MICc ([19]; in combination with 10-ZOL): 0.031
- antifungal MICc ([19]; in combination with ZOL): 0.015
- MIC / MEC [20]: 1 µg/mL (≈ 2.86 µM)
- antifungal MICc ([21]; in combination with 10-ZOL): 0.032
- antifungal MICc ([21]; in combination with ZOL): 0.25
- antifungal MICc ([22]; in combination with 10-ZOL): 0.063
- antifungal MICc ([22]; in combination with ZOL): 0.03125
- antifungal MICc ([23]; in combination with 10-ZOL): 0.063
- antifungal MICc ([23]; in combination with ZOL): 0.125
- MIC / MEC [24]: 1 µg/mL (≈ 2.86 µM)
- antifungal MICc ([25]; in combination with 10-ZOL): 0.5
- antifungal MICc ([25]; in combination with ZOL): 1
- antifungal MICc ([26]; in combination with 10-ZOL): 1
- antifungal MICc ([26]; in combination with ZOL): 4
- antifungal MICc ([27]; in combination with 10-ZOL): 2
- antifungal MICc ([27]; in combination with ZOL): 16
- MIC / MEC [28]: 2 µg/mL (≈ 5.73 µM)
- MIC / MEC [29]: 8 µg/mL (≈ 22.9 µM)
- MIC / MEC [30]: 0.06 µg/mL (≈ 0.172 µM)
- antifungal MICc ([31]; in combination with 10-ZOL): 4
- antifungal MICc ([31]; in combination with ZOL): 2
- antifungal MICc ([32]; in combination with 10-ZOL): 0.033
- antifungal MICc ([32]; in combination with ZOL): 0.06
- antifungal MICc ([33]; in combination with 10-ZOL): 0.25
- antifungal MICc ([33]; in combination with ZOL): 0.0625
- MIC / MEC [34]: 0.13 µg/mL (≈ 0.372 µM)

SMILES: C[C@@H]1[C@H](O)[C@@H](C)/C=C/C=C/C=C/C=C/C=C/C=C/C=C/[C@H](O[C@@H]2O[C@H](C)[C@@H](O)[C@H](N)[C@@H]2O)C[C@@H]2O[C@](O)(C[C@@H](O)C[C@@H](O)[C@H](O)CC[C@@H](O)C[C@@H](O)CC(=O)O[C@H]1C)C[C@H](O)[C@H]2C(=O)O [AMB, amphotericin B]
- MIC / MEC [1]: 0.25 µg/mL (≈ 0.271 µM)
- antifungal MICc ([2]; in combination with 10-ZOL): 0.25
- antifungal MICc ([2]; in combination with ZOL): 0.25
- MIC / MEC [3]: 0.13 µg/mL (≈ 0.141 µM)
- antifungal MICc ([4]; in combination with 10-ZOL): 0.25
- antifungal MICc ([4]; in combination with ZOL): 0.25
- antifungal MICc ([5]; in combination with 10-ZOL): 1
- antifungal MICc ([5]; in combination with ZOL): 0.25
- antifungal MICc ([6]; in combination with 10-ZOL): 0.25
- antifungal MICc ([6]; in combination with ZOL): 0.125
- MIC / MEC [7]: 4 µg/mL (≈ 4.33 µM)
- MIC / MEC [8]: 1 µg/mL (≈ 1.08 µM)
- antifungal MICc ([9]; in combination with 10-ZOL): 1
- antifungal MICc ([9]; in combination with ZOL): 4
- antifungal MICc ([10]; in combination with 10-ZOL): 0.25
- antifungal MICc ([10]; in combination with ZOL): 0.25
- antifungal MICc ([11]; in combination with 10-ZOL): 1
- antifungal MICc ([11]; in combination with ZOL): 2
- MIC / MEC [12]: 2 µg/mL (≈ 2.16 µM)
- MIC / MEC [13]: 2 µg/mL (≈ 2.16 µM)
- MIC / MEC [14]: 16 µg/mL (≈ 17.3 µM)
- MIC / MEC [15]: 0.5 µg/mL (≈ 0.541 µM)
- antifungal MICc ([16]; in combination with 10-ZOL): 0.25
- antifungal MICc ([16]; in combination with ZOL): 0.125
- antifungal MICc ([17]; in combination with 10-ZOL): 1
- antifungal MICc ([17]; in combination with ZOL): 2
- antifungal MICc ([18]; in combination with 10-ZOL): 0.25
- antifungal MICc ([18]; in combination with ZOL): 1
- antifungal MICc ([19]; in combination with 10-ZOL): 1
- antifungal MICc ([19]; in combination with ZOL): 0.5
- MIC / MEC [20]: 8 µg/mL (≈ 8.66 µM)
- antifungal MICc ([21]; in combination with 10-ZOL): 0.5
- antifungal MICc ([21]; in combination with ZOL): 0.25
- antifungal MICc ([22]; in combination with 10-ZOL): 0.25
- antifungal MICc ([22]; in combination with ZOL): 0.5
- antifungal MICc ([23]; in combination with 10-ZOL): 0.5
- antifungal MICc ([23]; in combination with ZOL): 0.5
- MIC / MEC [24]: 0.13 µg/mL (≈ 0.141 µM)
- antifungal MICc ([25]; in combination with 10-ZOL): 2
- antifungal MICc ([25]; in combination with ZOL): 8
- antifungal MICc ([26]; in combination with 10-ZOL): 1
- antifungal MICc ([26]; in combination with ZOL): 0.5
- antifungal MICc ([27]; in combination with 10-ZOL): 4
- antifungal MICc ([27]; in combination with ZOL): 4
- MIC / MEC [28]: 2 µg/mL (≈ 2.16 µM)
- MIC / MEC [29]: 0.25 µg/mL (≈ 0.271 µM)
- MIC / MEC [30]: 0.25 µg/mL (≈ 0.271 µM)
- antifungal MICc ([31]; in combination with 10-ZOL): 1
- antifungal MICc ([31]; in combination with ZOL): 2
- antifungal MICc ([32]; in combination with 10-ZOL): 0.125
- antifungal MICc ([32]; in combination with ZOL): 0.25
- antifungal MICc ([33]; in combination with 10-ZOL): 0.5
- antifungal MICc ([33]; in combination with ZOL): 0.25
- MIC / MEC [34]: 0.5 µg/mL (≈ 0.541 µM)
